Results as given in the NIST ThermoML archive (doi:10.1016/j.jct.2006.06.009).
± gives the expanded uncertainty stated by the source.

Assays:
[1] = 308.15 K; 101 kPa; Liquid
[2] = xn = mol fraction of the nth substance listed; conditions: 308.15 K, 101 kPa, Liquid

With `ClC(Cl)C(Cl)Cl` [1,1,2,2-tetrachloroethane] the mass density [1] was 1572.4 ± 2.9 kg/m3 and the viscosity [1] was 1.334 ± 0.033 mPa·s.

Compound `ClC(Cl)C(Cl)Cl` [1,1,2,2-tetrachloroethane] + CNC(C)=O has a mass density ([2]; x2 = 0) of 1572.4 ± 2.9 kg/m3 and a viscosity ([2]; x2 = 0) of 1.334 ± 0.033 mPa·s.

With `ClCC(Cl)Cl` [1,1,2-trichloroethane] the mass density [1] was 1416.1 ± 3.2 kg/m3 and the viscosity [1] was 0.903 ± 0.017 mPa·s.

`ClCC(Cl)Cl` [1,1,2-trichloroethane] + CNC(C)=O gave a mass density ([2]; x2 = 0) of 1416.1 ± 3.2 kg/m3, a viscosity ([2]; x2 = 0) of 0.903 ± 0.017 mPa·s and a mass density ([2]; x2 = 0.0706) of 1390.4 ± 3 kg/m3. For the same compound, the viscosity ([2]; x2 = 0.0706) was 1.003 ± 0.018 mPa·s, the mass density ([2]; x2 = 0.2356) was 1324.2 ± 2.6 kg/m3 and the viscosity ([2]; x2 = 0.2356) was 1.365 ± 0.022 mPa·s. It also gave a mass density ([2]; x2 = 0.3484) of 1276 ± 2.3 kg/m3, a viscosity ([2]; x2 = 0.3484) of 1.771 ± 0.026 mPa·s and a mass density ([2]; x2 = 0.452) of 1229.9 ± 2.1 kg/m3. The viscosity ([2]; x2 = 0.452) was 2.18 ± 0.03 mPa·s, the mass density ([2]; x2 = 0.5461) was 1186.3 ± 1.9 kg/m3 and the viscosity ([2]; x2 = 0.5461) was 2.537 ± 0.034 mPa·s. For the same compound, the mass density ([2]; x2 = 0.643) was 1139.1 ± 1.7 kg/m3, the viscosity ([2]; x2 = 0.643) was 2.88 ± 0.038 mPa·s and the mass density ([2]; x2 = 0.7345) was 1092.7 ± 1.6 kg/m3. The viscosity ([2]; x2 = 0.7345) was 3.105 ± 0.04 mPa·s, the mass density ([2]; x2 = 0.8235) was 1045.8 ± 1.4 kg/m3 and the viscosity ([2]; x2 = 0.8235) was 3.249 ± 0.041 mPa·s. For the same compound, the mass density ([2]; x2 = 0.9497) was 975.3 ± 1.3 kg/m3 and the viscosity ([2]; x2 = 0.9497) was 3.345 ± 0.041 mPa·s.

For `ClCCCl` [1,2-dichloroethane], the mass density [1] was 1230.8 ± 1.7 kg/m3 and the viscosity [1] was 0.646 ± 0.013 mPa·s.

Compound `ClCCCl` [1,2-dichloroethane] + CNC(C)=O has a mass density ([2]; x2 = 0) of 1230.8 ± 1.7 kg/m3 and a viscosity ([2]; x2 = 0) of 0.646 ± 0.013 mPa·s.

`CNC(C)=O` [N-methylacetamide] showed a mass density [1] of 945.9 ± 1.2 kg/m3 and a viscosity [1] of 3.312 ± 0.04 mPa·s.

`CNC(C)=O` [N-methylacetamide] + ClC(Cl)=C(Cl)Cl gave a mass density ([2]; x1 = 0.0571) of 1573.5 ± 2.3 kg/m3, a viscosity ([2]; x1 = 0.0571) of 0.801 ± 0.014 mPa·s and a mass density ([2]; x1 = 0.2569) of 1463.9 ± 2.1 kg/m3. For the same compound, the viscosity ([2]; x1 = 0.2569) was 1.541 ± 0.021 mPa·s, the mass density ([2]; x1 = 0.3691) was 1396.5 ± 2 kg/m3 and the viscosity ([2]; x1 = 0.3691) was 1.895 ± 0.024 mPa·s. It also gave a mass density ([2]; x1 = 0.4749) of 1330.8 ± 1.8 kg/m3, a viscosity ([2]; x1 = 0.4749) of 2.195 ± 0.027 mPa·s and a mass density ([2]; x1 = 0.5719) of 1268.3 ± 1.7 kg/m3. For the same compound, the viscosity ([2]; x1 = 0.5719) was 2.411 ± 0.03 mPa·s, the mass density ([2]; x1 = 0.6637) was 1206.2 ± 1.6 kg/m3 and the viscosity ([2]; x1 = 0.6637) was 2.61 ± 0.032 mPa·s. For the same compound, the mass density ([2]; x1 = 0.7039) was 1178 ± 1.6 kg/m3, the viscosity ([2]; x1 = 0.7039) was 2.696 ± 0.033 mPa·s and the mass density ([2]; x1 = 0.8385) was 1078.2 ± 1.4 kg/m3. For the same compound, the viscosity ([2]; x1 = 0.8385) was 2.981 ± 0.037 mPa·s, the mass density ([2]; x1 = 0.9666) was 974.6 ± 1.2 kg/m3 and the viscosity ([2]; x1 = 0.9666) was 3.245 ± 0.04 mPa·s. It also gave a mass density ([2]; x1 = 1) of 945.9 ± 1.2 kg/m3 and a viscosity ([2]; x1 = 1) of 3.312 ± 0.04 mPa·s.

In the case of `CNC(C)=O` [N-methylacetamide] + ClC(Cl)C(Cl)Cl, the mass density ([2]; x1 = 0.0621) is reported as 1545.5 ± 2.8 kg/m3, the viscosity ([2]; x1 = 0.0621) is reported as 1.499 ± 0.037 mPa·s and the mass density ([2]; x1 = 0.2627) is reported as 1450.5 ± 2.4 kg/m3. It also gave a viscosity ([2]; x1 = 0.2627) of 2.226 ± 0.053 mPa·s, a mass density ([2]; x1 = 0.3728) of 1393 ± 2.2 kg/m3 and a viscosity ([2]; x1 = 0.3728) of 2.726 ± 0.064 mPa·s. The mass density ([2]; x1 = 0.4796) was 1331.6 ± 2 kg/m3, the viscosity ([2]; x1 = 0.4796) was 3.398 ± 0.078 mPa·s and the mass density ([2]; x1 = 0.5797) was 1268.9 ± 1.9 kg/m3. It also gave a viscosity ([2]; x1 = 0.5797) of 3.936 ± 0.09 mPa·s, a mass density ([2]; x1 = 0.6722) of 1206.5 ± 1.7 kg/m3 and a viscosity ([2]; x1 = 0.6722) of 4.291 ± 0.097 mPa·s. For the same compound, the mass density ([2]; x1 = 0.7594) was 1143.7 ± 1.6 kg/m3, the viscosity ([2]; x1 = 0.7594) was 4.404 ± 0.099 mPa·s and the mass density ([2]; x1 = 0.8413) was 1080.7 ± 1.5 kg/m3. The viscosity ([2]; x1 = 0.8413) was 4.036 ± 0.091 mPa·s, the mass density ([2]; x1 = 0.9679) was 974.8 ± 1.2 kg/m3 and the viscosity ([2]; x1 = 0.9679) was 3.533 ± 0.08 mPa·s. For the same compound, the mass density ([2]; x1 = 1) was 945.9 ± 1.2 kg/m3 and the viscosity ([2]; x1 = 1) was 3.312 ± 0.075 mPa·s.

With `CNC(C)=O` [N-methylacetamide] + ClC=C(Cl)Cl the mass density ([2]; x1 = 0.0514) was 1417.9 ± 2 kg/m3, the viscosity ([2]; x1 = 0.0514) was 0.564 ± 0.013 mPa·s and the mass density ([2]; x1 = 0.2353) was 1340.4 ± 1.9 kg/m3. For the same compound, the viscosity ([2]; x1 = 0.2353) was 1.015 ± 0.016 mPa·s, the mass density ([2]; x1 = 0.3404) was 1293.3 ± 1.8 kg/m3 and the viscosity ([2]; x1 = 0.3404) was 1.291 ± 0.018 mPa·s. It also gave a mass density ([2]; x1 = 0.4437) of 1244.6 ± 1.7 kg/m3, a viscosity ([2]; x1 = 0.4437) of 1.578 ± 0.021 mPa·s and a mass density ([2]; x1 = 0.5419) of 1196.4 ± 1.6 kg/m3. The viscosity ([2]; x1 = 0.5419) was 1.856 ± 0.024 mPa·s, the mass density ([2]; x1 = 0.6357) was 1148.5 ± 1.5 kg/m3 and the viscosity ([2]; x1 = 0.6357) was 2.15 ± 0.027 mPa·s. The mass density ([2]; x1 = 0.7288) was 1099.4 ± 1.4 kg/m3, the viscosity ([2]; x1 = 0.7288) was 2.45 ± 0.03 mPa·s and the mass density ([2]; x1 = 0.8196) was 1049.9 ± 1.4 kg/m3. For the same compound, the viscosity ([2]; x1 = 0.8196) was 2.74 ± 0.034 mPa·s, the mass density ([2]; x1 = 0.9692) was 964.4 ± 1.2 kg/m3 and the viscosity ([2]; x1 = 0.9692) was 3.215 ± 0.039 mPa·s. For the same compound, the mass density ([2]; x1 = 1) was 945.9 ± 1.2 kg/m3 and the viscosity ([2]; x1 = 1) was 3.312 ± 0.04 mPa·s.

Compound `CNC(C)=O` [N-methylacetamide] + ClCC(Cl)Cl has a mass density ([2]; x1 = 1) of 945.9 ± 1.2 kg/m3 and a viscosity ([2]; x1 = 1) of 3.312 ± 0.04 mPa·s.

With `CNC(C)=O` [N-methylacetamide] + ClCCCl the mass density ([2]; x1 = 0.063) was 1213.8 ± 1.6 kg/m3, the viscosity ([2]; x1 = 0.063) was 0.705 ± 0.014 mPa·s and the mass density ([2]; x1 = 0.134) was 1194.7 ± 1.6 kg/m3. The viscosity ([2]; x1 = 0.134) was 0.785 ± 0.014 mPa·s, the mass density ([2]; x1 = 0.2632) was 1159.1 ± 1.5 kg/m3 and the viscosity ([2]; x1 = 0.2632) was 1.024 ± 0.016 mPa·s. It also gave a mass density ([2]; x1 = 0.3875) of 1124.3 ± 1.5 kg/m3, a viscosity ([2]; x1 = 0.3875) of 1.342 ± 0.019 mPa·s and a mass density ([2]; x1 = 0.4442) of 1108.2 ± 1.4 kg/m3. For the same compound, the viscosity ([2]; x1 = 0.4442) was 1.5 ± 0.02 mPa·s, the mass density ([2]; x1 = 0.5064) was 1090.5 ± 1.4 kg/m3 and the viscosity ([2]; x1 = 0.5064) was 1.694 ± 0.022 mPa·s. It also gave a mass density ([2]; x1 = 0.6863) of 1038.5 ± 1.3 kg/m3, a viscosity ([2]; x1 = 0.6863) of 2.245 ± 0.028 mPa·s and a mass density ([2]; x1 = 0.807) of 1003.1 ± 1.3 kg/m3. For the same compound, the viscosity ([2]; x1 = 0.807) was 2.651 ± 0.033 mPa·s, the mass density ([2]; x1 = 0.931) was 966.5 ± 1.2 kg/m3 and the viscosity ([2]; x1 = 0.931) was 3.083 ± 0.038 mPa·s. It also gave a mass density ([2]; x1 = 1) of 945.9 ± 1.2 kg/m3 and a viscosity ([2]; x1 = 1) of 3.312 ± 0.04 mPa·s.

With `ClC(Cl)=C(Cl)Cl` [tetrachloroethene] the mass density [1] was 1599.2 ± 2.3 kg/m3 and the viscosity [1] was 0.723 ± 0.014 mPa·s.

For `ClC(Cl)=C(Cl)Cl` [tetrachloroethene] + CNC(C)=O, the mass density ([2]; x2 = 0) was 1599.2 ± 2.3 kg/m3 and the viscosity ([2]; x2 = 0) was 0.723 ± 0.014 mPa·s.

`ClC=C(Cl)Cl` [trichloroethene] showed a mass density [1] of 1438.5 ± 2 kg/m3 and a viscosity [1] of 0.46 ± 0.012 mPa·s.

Work on `ClC=C(Cl)Cl` [trichloroethene] + CNC(C)=O yielded a mass density ([2]; x2 = 0) of 1438.5 ± 2 kg/m3 and a viscosity ([2]; x2 = 0) of 0.46 ± 0.012 mPa·s.
